# After the bases stand the sugars from the 5' end (letter, count) and the backbone: PS all phosphorothioate, else s phosphorothioate and o phosphodiester by linkage. Methylation of C is not given here. e = 2'-O-(2-methoxyethyl) (MOE); l = locked nucleic acid (LNA); k = constrained ethyl (cEt); d = 2'-deoxy (DNA)
# Columns and labels:
# ANGPTL2 = conditions: ASO
# KRAS = conditions: ASO
Sequence,target mRNA inhibition (ANGPTL2; 5 µM),target mRNA inhibition (ANGPTL2; 25 µM),other results
"AACCATTTTGAGATTCCCC (sugars l1 d16 l2, PS)",28.5%,17.6%,
"AACCCCAGAGGATATGT (sugars l1 d13 l3, PS)",49.3%,58.9%,
"AAGTTGATAGTTTATCTCC (sugars l3 d14 l2, PS)",76.3%,83.8%,
"AAGTTGATAGTTTATCTCCT (sugars l2 d16 l2, PS)",60.9%,72%,
"AATTACTCCACACTTTCA (sugars l3 d12 l3, PS)",55.7%,61.6%,
"ACAACTCACATTCATAG (sugars l4 d9 l4, PS)",49%,54.7%,
"ACAGAGACTAGGCATTT (sugars l3 d10 l4, PS)",74.1%,83.9%,
"ACATAATGTTTCATGCT (sugars l4 d11 l2, PS)",46%,45.8%,
"ACTGGTGAGGAGTTGTT (sugars l2 d13 l2, PS)",26%,25.8%,
"AGATGAATATAGTTCTC (sugars l4 d10 l3, PS)",55.3%,65.9%,
"AGCTCAGTGGTGAGATGG (sugars l1 d15 l2, PS)",54.1%,54.8%,
"AGTGAGAGGAAGTCAGGG (sugars l1 d15 l2, PS)",39.6%,46.3%,
"AGTGTTTAAGAAGAAATG (sugars l4 d10 l4, PS)",41.7%,54.8%,
"AGTTACTCTTAGCCAAA (sugars l3 d10 l4, PS)",82.6%,84.8%,
"ATAACGCCCACTGAGA (sugars l1 d11 l4, PS)",24.4%,39.7%,
"ATAGCAGGGAGTGACC (sugars l2 d12 l2, PS)",8.4%,26.5%,
"ATCTGGTTGATGATGCGG (sugars l2 d14 l2, PS)",75.2%,82.3%,
"ATCTTATTTTGTTTAACA (sugars l4 d10 l4, PS)",60.2%,51.7%,
"ATGAAGTCAGTCAGAGCCT (sugars l1 d16 l2, PS)",27.6%,22.6%,
"ATGATGCGGTTGTAGGT (sugars l2 d13 l2, PS)",57.5%,,
"ATTTACTGTCTGCCCAG (sugars l2 d12 l3, PS)",54.6%,59.5%,

Sequence,target mRNA inhibition (ANGPTL2; 5 µM),target mRNA inhibition (ANGPTL2; 25 µM),other results
"ATTTTGAGATTCCCCCAA (sugars l1 d14 l3, PS)",3.44%,20.9%,
"CAGAACAATGGGGAGGA (sugars l3 d12 l2, PS)",58.5%,51.1%,
"CAGCTCATTGTTGAGCAG (sugars l2 d14 l2, PS)",-19%,7.91%,
"CAGGCACACTAATGAGA (sugars l2 d12 l3, PS)",9.64%,9.52%,
"CAGGCCAACACTAACTCG (sugars l1 d14 l3, PS)",73.4%,84.2%,
"CAGGCGTCTCTGGATGA (sugars l1 d14 l2, PS)",17.4%,10.6%,
"CATTTTGAGATTCCCCC (sugars l1 d14 l2, PS)",27.1%,14%,
"CCAAGGGCACGTTTTA (sugars l2 d12 l2, PS)",-4%,13.2%,
"CCAGTTCCTGAAGAAGTT (sugars l2 d14 l2, PS)",16.3%,16.7%,
"CCTTGCAAAATGGTGGTT (sugars l2 d14 l2, PS)",49.6%,57.4%,
"CTCCGGTAATGGCCCC (sugars l1 d12 l3, PS)",28.6%,25.4%,
"GTGTTTATGCAATGTT (sugars kkkddddddddkekek, PS)",,,"target mRNA inhibition (KRAS; A431, 0.185 µM): 33%; target mRNA inhibition (KRAS; A431, 0.556 µM): 55%; target mRNA inhibition (KRAS; A431, 1.667 µM): 69%; target mRNA inhibition (KRAS; A431, 2 µM): 66%; target mRNA inhibition (KRAS; A431, 5 µM): 78%"
"GTTTATGCAATGTTAA (sugars k3 d10 k3, PS)",,,"target mRNA inhibition (KRAS; A431, 2 µM): 55%"
"TAAAAAAAAAATTAAT (sugars k3 d10 k3, PS)",,,"target mRNA inhibition (KRAS; A431, 2 µM): 1%"
"TAACCAGTGTTAAGAG (sugars k3 d10 k3, PS)",,,"target mRNA inhibition (KRAS; A431, 2 µM): 40%"
"TAATAATCCCCATTTC (sugars k3 d10 k3, PS)",,,"target mRNA inhibition (KRAS; A431, 2 µM): 9%"
"TAATCTTTTAATGTCA (sugars k3 d10 k3, PS)",,,"target mRNA inhibition (KRAS; A431, 2 µM): 7%"
"TAATGGTGAATATCTT (sugars k3 d10 k3, PS)",,,"target mRNA inhibition (KRAS; A431, 2 µM): 11%"
"TACTAGTATGCCTTAA (sugars k3 d10 k3, PS)",,,"target mRNA inhibition (KRAS; A431, 2 µM): 16%"
"TACTTTTTGACAAATG (sugars k3 d10 k3, PS)",,,"target mRNA inhibition (KRAS; A431, 2 µM): 37%"
"TAGGGCATTTCTGATG (sugars k3 d10 k3, PS)",,,"target mRNA inhibition (KRAS; A431, 2 µM): 20%"
